# From ChEMBL document CHEMBL1201862, “PubChem BioAssay data set” (2004)
#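 Each compound was tested at five concentrations against cells in 96-well plates for 48 hours. GI50 = concentration required for 50% inhibition of growth.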 Activity calls are given as the source filed them. Rule as the data show it: active = GI50 up to about 1.1 µM and inactive = higher.
# Assays:
# Assay in all cases: growth of human tumour cells (NCI), 48 h
# [1] = system: MOLT-4
# [2] = system: SK-MEL-28
# [3] = system: UO-31
# [4] = system: SNB-19
# [5] = system: T47D
# [6] = system: SF-295
# [7] = system: UACC-257
# [8] = system: EKVX
# [9] = system: TK-10
# [10] = system: ACHN
# [11] = system: CAKI-1
# [12] = system: PC-3
# [13] = system: M14
# [14] = system: HCT-15
# [15] = system: U-251
# [16] = system: LOX IMVI
# [17] = system: HT-29
# [18] = system: CCRF-CEM
SMILES,GI50 [1],GI50 [2],GI50 [3],GI50 [4],GI50 [5],GI50 [6],GI50 [7],GI50 [8],GI50 [9],GI50 [10],GI50 [11],GI50 [12],GI50 [13],GI50 [14] [µM],GI50 [15],GI50 [16],GI50 [17],GI50 [18]
O=c1cc(-c2ccc(O)c(O)c2)oc2cc(O[C@H]3O[C@H](CO)[C@@H](O)[C@H](O)[C@H]3O)cc(O)c12,21.4 µM (inactive),59.3 µM (inactive),11.2 µM (inactive),75.9 µM (inactive),89.1 µM (inactive),> 100 µM (inactive),> 100 µM (inactive),56.6 µM (inactive),> 100 µM (inactive),65.5 µM (inactive),89.9 µM (inactive),70.6 µM (inactive),> 100 µM (inactive),41.5,> 100 µM (inactive),35.6 µM (inactive),67.8 µM (inactive),
COc1c2c(c3c(c1CCC(=O)O)OC(C)(C)C=C3)OC(C)(C)C=C2,65.9 µM (inactive),> 100 µM (inactive),> 100 µM (inactive),> 100 µM (inactive),> 100 µM (inactive),> 100 µM (inactive),> 100 µM (inactive),74.3 µM (inactive),> 100 µM (inactive),> 100 µM (inactive),> 100 µM (inactive),> 100 µM (inactive),> 100 µM (inactive),> 100,> 100 µM (inactive),> 100 µM (inactive),> 100 µM (inactive),
O=C(Nc1sccc1S(=O)(=O)c1ccccc1)c1ccccc1,> 100 µM (inactive),> 100 µM (inactive),> 100 µM (inactive),> 100 µM (inactive),> 100 µM (inactive),> 100 µM (inactive),> 100 µM (inactive),> 100 µM (inactive),> 100 µM (inactive),> 100 µM (inactive),> 100 µM (inactive),> 100 µM (inactive),> 100 µM (inactive),7.16,> 100 µM (inactive),> 100 µM (inactive),> 31.6 µM (inactive),
COC(=O)CN1CCN(c2cccc3c2CCCC3)CC1,44.5 µM (inactive),,92.3 µM (inactive),> 100 µM (inactive),98.2 µM (inactive),> 100 µM (inactive),50.6 µM (inactive),66.2 µM (inactive),93.8 µM (inactive),72.9 µM (inactive),> 100 µM (inactive),64.6 µM (inactive),19.4 µM (inactive),> 100,> 100 µM (inactive),43.5 µM (inactive),18.2 µM (inactive),47.9 µM (inactive)
O=C1c2ccccc2-n2c1nc1cc(Cl)ccc1c2=O,11.9 µM (inactive),,> 100 µM (inactive),> 100 µM (inactive),0.807 µM (active),50.7 µM (inactive),9.68 µM (inactive),> 100 µM (inactive),> 100 µM (inactive),> 100 µM (inactive),36.8 µM (inactive),> 100 µM (inactive),15.8 µM (inactive),21.2,51.4 µM (inactive),14 µM (inactive),61.9 µM (inactive),3.84 µM (inactive)
COc1ccc(NC(=S)Nc2cc(C)ccn2)cc1,> 100 µM (inactive),> 100 µM (inactive),> 100 µM (inactive),> 100 µM (inactive),> 100 µM (inactive),,> 100 µM (inactive),> 100 µM (inactive),> 100 µM (inactive),> 100 µM (inactive),> 100 µM (inactive),> 100 µM (inactive),,> 100,> 100 µM (inactive),> 100 µM (inactive),> 100 µM (inactive),> 100 µM (inactive)
CC1=NN(c2ccccc2Cl)C2(C1)C(Cl)C(=O)N2c1nc2ccccc2s1 (centres undefined),30 µM (inactive),,61.8 µM (inactive),52.7 µM (inactive),44.3 µM (inactive),61.8 µM (inactive),> 100 µM (inactive),> 100 µM (inactive),> 100 µM (inactive),94.8 µM (inactive),50.2 µM (inactive),> 100 µM (inactive),52.4 µM (inactive),44.3,28.6 µM (inactive),15.5 µM (inactive),51.5 µM (inactive),
O=S(=O)(O)c1ccc(O)c2ncc(Cl)cc12,> 100 µM (inactive),> 100 µM (inactive),> 100 µM (inactive),> 100 µM (inactive),> 100 µM (inactive),> 100 µM (inactive),> 100 µM (inactive),> 100 µM (inactive),,> 100 µM (inactive),> 100 µM (inactive),> 100 µM (inactive),> 100 µM (inactive),> 100,> 100 µM (inactive),> 100 µM (inactive),> 100 µM (inactive),> 100 µM (inactive)
